Results on one molecule are retold here after patent publication US20260015376A1, “CONTINUOUS FLOW METHODS FOR PRODUCING MANNOSE-1-PHOSPHATE, POLYMORPHS OF MANNOSE-1-PHOSPHATE, AND COMPOSITIONS AND USES RELATED THERETO” (Glycomine, Inc., priority 2022, published 2026).

Holding throughout (type): physicochemical
A short description of series [1]: Water sorption by dynamic vapor sorption (DVS) at 25° C. The method, then:
Water sorption behavior of […] Form C was investigated using dynamic vapor sorption (DVS) at 25° C. The relative humidity (RH) was increased from 0-80%, with a minimum equilibration time of 60 min and a maximum equilibration time of 360 min.

The nature of series [2]: Compression study (hydraulic press, XRPD). The method, then:
About 10 mg of […] Form C was compressed for 5 minutes under 5 MPa or 10 MPa with a hydraulic press. Potential form change and degree of crystallinity were evaluated by XRPD.

Series [3] can be described thus: Water activity experiments to determine relative stability of Forms A, B and C in water/EtOH systems (XRPD). The method, then:
[…]. Water activity experiments were conducted at 25° C. in several different water/EtOH systems to determine relative stability of M1P Forms A, B and C under these conditions.
About 5 mg each of M1P Forms A, B, and C were combined and added to 0.2 mL saturated solutions of a water/EtOH system. The resulting suspensions were stirred at 5° C., 25° C., or 50° C. for 4 days or 11 days. After 4 or 11 days, the solids (wet cakes) were isolated by centrifugation filtration and analyzed by XRPD to determine which Form(s) remained.

A short description of series [4]: Wet granulation simulation (XRPD). To be noted: ethanol as the granulation solvent, dried 10 min at ambient conditions. The method, then:
Ethanol was added dropwise to about 10 mg of M1P Form C until the sample was wetted sufficiently. The wet sample was ground gently in a mortar and a pestle. Post granulation, the sample was dried under ambient conditions for 10 min. Potential form change and degree of crystallinity were evaluated by XRPD.

A short description of series [5]: Dry grinding study (XRPD). To be noted: ground manually with mortar and pestle for 3 min. The method, then:
About 10 mg of […] Form C was ground manually with a mortar and a pestle for 3 min. Potential form change and degree of crystallinity were evaluated by XRPD.

The nature of series [6]: 12-month stability, polymorph characterization by XRPD and purity by chromatography. To be noted: −20° C., 25° C./60% RH, 40° C./75% RH, 5° C. The method, then: […] Form C was produced in accordance with the examples above. XRPD was used on samples taken at 1, 3, 6, 9 and 12 months, and tested under four conditions: • -20° C.±5° C., • 25° C.±2° C. at 60% relative humidity (RH)±5% RH, • 40° C.±2° C. at 75% RH±5% RH and • 5° C.±3° C.

Molecules are shown by their SMILES. “Also recorded” adds a separate entry of the source.

Consider `O=P([O-])([O-])O[C@H]1O[C@H](CO)[C@@H](O)[C@H](O)[C@@H]1O.[K+].[K+]` [Form C], for which the “form change by XRPD following the DVS experiment” value in series [1] (80% RH at 25° C.) is “no form change was observed”. Besides, in series [1] (DVS, 25° C., 80% RH), the H2O absorbed is reported as 1.9 % (w/w). Besides, the hygroscopicity entry in series [1] (DVS, 25° C., RH 0-80%) is given as “only slightly hygroscopic; also recorded: low hygroscopicity”. In addition, the “% Water absorption” value in series [1] (DVS, 25° C., relative humidity 0%) amounted to 0.01%; in series [1] (DVS, 25° C., relative humidity 10%), 0.51%; in series [1] (DVS, 25° C., relative humidity 20%) it was 0.59%; in series [1] (DVS, 25° C., relative humidity 30%), 0.63%; in series [1] (DVS, 25° C., relative humidity 40%), 0.65%; in series [1] (DVS, 25° C., relative humidity 50%) it was 0.69%. Besides, the “% Water absorption” value is reported as 0.73% in series [1] (DVS, 25° C., relative humidity 60%); 0.82% in series [1] (DVS, 25° C., relative humidity 70%); 1.93% in series [1] (DVS, 25° C., relative humidity 80%). The “form change by XRPD” value in series [2] (compressed for 5 minutes under 5 MPa) is recorded as “no form change was observed”; in series [2] (compressed for 5 minutes under 10 MPa) it was “no form change was observed”; in series [4], “no form change”; in series [5], “no form change”. Also, the “degree of crystallinity by XRPD” value was “crystallinity decreased” in series [2] (compressed for 5 minutes under 5 MPa and 10 MPa); “crystallinity decreased” in series [5]. In series [3], the “stability over water activity range” value is “stable over a wide water activity range”. Besides, in series [6] (1, 3, 6, 9 and 12 months), the “changes to the polymorphic form by XRPD” value was “no observed changes to the polymorphic form”. For the same molecule, the “changes in purity by chromatography” value in series [6] (12-month stability) is recorded as “no substantial changes observed”.
